Experimental findings from ChEMBL document CHEMBL1148080, “Identification of an activator of the retinoid X receptor” (J Nat Prod, 1994) are described below.

Activity calls are given as the source filed them. The rule behind the calls is not given here.

The target of the test is T1, Retinoic acid receptor alpha (Homo sapiens) (UniProt P10276).
T1 sequence (whole entry): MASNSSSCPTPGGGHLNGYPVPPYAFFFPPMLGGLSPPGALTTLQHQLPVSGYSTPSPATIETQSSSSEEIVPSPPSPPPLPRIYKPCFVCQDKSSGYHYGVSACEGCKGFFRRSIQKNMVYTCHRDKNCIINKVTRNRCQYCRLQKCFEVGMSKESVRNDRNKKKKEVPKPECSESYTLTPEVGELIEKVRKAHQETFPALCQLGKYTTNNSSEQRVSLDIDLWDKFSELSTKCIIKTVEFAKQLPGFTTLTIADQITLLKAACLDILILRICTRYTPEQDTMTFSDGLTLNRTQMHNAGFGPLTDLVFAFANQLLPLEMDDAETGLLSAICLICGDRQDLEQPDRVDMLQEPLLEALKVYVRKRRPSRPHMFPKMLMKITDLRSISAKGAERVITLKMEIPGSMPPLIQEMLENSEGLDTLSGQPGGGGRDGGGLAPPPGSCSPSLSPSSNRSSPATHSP
The experiment in a line: Transactivation of RARalpha expressed in mammalian cells assessed as effect on palindromic thyroid hormone response element-driven transcriptional activation by luciferase reporter gene assay. Format: cell-based.

On to `CC1=C(/C=C/C(C)=C\C=C\C(C)=C\C(=O)O[C@@H]2O[C@H](CO)[C@@H](O)[C@H](O)[C@H]2O)C(C)(C)CCC1`, for which the outcome was Active.
